Test results from patent US9895730B2, “Method for extraction and surfactant enhanced subsurface contaminant recovery” (priority 2007, dated 2018).
Read-outs that look alike come from different tables or passages of the source.

Columns and labels:
[1] = cited from earlier work
[2] = Chlorinated DNAPL dissolution experiments with Citrus Burst-3; assay type: physicochemical; conditions: water, thermodynamic from solid, in presence of chlorinated DNAPL, without cosolvent-surfactant, 25° C., read-out: Observed Solubility in Control Sample
Excerpt: In order to test the treatment of chlorinated compounds, a chlorinated solvent DNAPL was obtained from a site consisting of chlorinated solvents and chlorinated semi-volatile compounds. Composition of the chlorinated solvent DNAPL is presented based on determinations using USEPA Methods 8260 and 8270.
Carbon tetrachloride and tetrachloroethylene comprised more than 87 percent of the DNAPL. Being a saturated compound, carbon tetrachloride is generally a pervasive and difficult to degrade compound once introduced to the subsurface.

[3] = cited from earlier work; remark: listed apart in the source

Cc1ccc(C)c(C)c1 [1,2,4-Trimethybenzene]
log Kow ([1]; Table 2): 3.7

Cc1ccc2ccccc2c1 [2-Methylnaphthalene]
log Kow ([1]; Table 2): 3.9

ClC(Cl)(Cl)Cl [Carbon Tetrachloride (CTC), Carbon Tetrachloride]
solubility at 48 h [2]: 100 µg/mL
Pure Compound Aqueous Solubility [3]: 129 µg/mL
log Kow ([1]; Table 5): 2.83

CCc1ccccc1 [Ethylbenzene]
log Kow ([1]; Table 2): 3.1

ClC(Cl)=C(Cl)C(Cl)=C(Cl)Cl [Hexachlorobutadiene (HCBD), Hexachlorobutadiene]
log Kow ([1]; Table 5): 4.90

Clc1c(Cl)c(Cl)c2c(Cl)c(Cl)c(Cl)c(Cl)c2c1Cl [Octachloronaphthalene (OCN), Octachloronaphthalene]
Pure Compound Aqueous Solubility [3]: insoluble
